{"source": "patent US10857128B2", "about": "“Methods and compositions for treating inflammatory diseases” (Helmholtz Zentrum München Deutsches Forschungszentrum für …, priority 2017, dated 2020)", "type_in_all_cases": "cell-based", "key": {"[1]": {"tested_on": "costimulatory molecules of LPS-stimulated human dendritic cells", "assay": "Costimulatory molecules on LPS-stimulated human monocyte-derived dendritic cells (flow cytometry)", "settings": "Dendritic cell, 24 h, LPS 0.1 μg/ml, D-amino acid 10 μM, mean ± SD of three experiments, relative to LPS-induced expression", "protocol": "Generation of human monocyte-derived dendritic cells. Peripheral venous blood was obtained from healthy volunteers aged between 20 and 50 years after informed consent. Individuals with allergic disease, acute infection or taking any medication 20 days prior to blood sampling or any history of smoking (personal interview) were excluded prior to blood sampling. All experiments were conducted according to the principles expressed in the Declaration of Helsinki.\n(§1) Peripheral blood mononuclear cells (PBMC) were isolated from heparinized whole blood by density gradient centrifugation (2000 rpm, 22° C., 20 min) (Biocoll, Biochrom AG, Berlin, Germany). […] Purity and viability of DCs was assessed by flow cytometry (FIG. 9A-C).\nCostimulatory molecules on human DCs. The following primary monoclonal antibodies were used: CD83 fluorescein isothiocyanate (FITC); CD1a phycoerythrin (PE); CD86-FITC; CD80-PE; CD14 allophycocyanine (APC); CD40-APC; CD3-peridinin chlorophyll protein (PerCP); HLA-DR-PerCP; mouse immunoglobulins G1 (IgG1) mouse immunoglobulins G1 (IgG1) κ were used as isotype controls using the corresponding fluorochromes (all purchased from BD Biosciences, Heidelberg, Germany). To account for donor dependent variability of DC surface markers, all data were normalized to the expression induced by LPS which was set to 100% after subtraction of background values (FACS Canto, FACS DIVA software, Version 5.0.3, BD Biosciences, Heidelberg, Germany). Murine DC subsets and CD4^+ T cells. Single cell suspensions of splenocytes were obtained by filtering spleens through a 70 μm strainer. Samples were stained with CD3-PB (1:200, Biolegend, San Diego, USA), CD4-APC-H7 (BD, 1:400), CD11c-APC-Cy7 (1:100), Mhc-II-Percp-Cy5 (1:100), CD11b-FITC (1:100), CD80-AF647, CD40-APC (1:100). For intracellular cytokines, total spleen cells were stimulated with anti-CD3 (4 μg/mL, BD Bioscience, Heidelberg, Germany) and anti-CD28 (30 ng/mL, BD Bioscience, Heidelberg, Germany) for 16 h. 1×10^6 of total lung cells were stimulated for 16 h with MACSiBead particles coated with anti-CD3 and anti-CD28 using the T cell activation/expansion kit (Miltenyi Biotec, Bergisch Gladbach, Germany) in TexMACS medium (Miltenyi Biotec) according to the manufactures recommendations. Prior to staining, cells were treated with monensin (0.7 μL/mL, BD Golgi Stop, BD Bioscience, Heidelberg, Germany) for 6 h at 37° C. and intracellularly stained for II-4-PE (1:100, eBioscience, Vienna, Austria according to the manufacturer's protocols. Intracellular staining for Foxp3 was performed by using the Foxp3/Transcription Factor Staining buffer set (eBiosciences, Vienna, Austria) according to the manufacturer's recommendations.\nBioassays for screening for immune modulatory activity in probiotic supernatants. Two biological assays based on down-modulation of costimulatory molecules on human DCs, and of CCL17-secretion by a human Hodgkin lymphoma T cell line (KM-H2) were set up. Human immature DCs were matured with 0.1 μg/mL lipopolysaccharide (LPS) from E. coli (Sigma-Aldrich, St. Louis, USA) in the presence or absence of 200 μL bacteria free supernatants for 24 h followed by flow cytometric analysis of costimulatory molecules."}, "[2]": {"tested_on": "CCL17 secretion of human Hodgkin lymphoma KM-H2 cells", "assay": "CCL17 secretion bioassay with KM-H2 cells (ELISA)", "settings": "different concentrations, 24 h", "protocol": "Human T cell line KM-H2. The human Hodgkin lymphoma T cell line (KM-H2) was purchased from the Leibniz Institute DSMZ-German Collection of Microorganisms and Cell Cultures, Braunschweig, Germany. 3-5×10^6 KM-H2 cells were grown in 4 mL RPMI 1640 per well in 6-well-plates (Nunc, Wiesbaden, Germany). All eukaryotic cells were cultured in 5% CO2 at 37° C. (HeraCell 240 and Heraeus BDD 6220, Thermo Fisher Scientific, Waltham, USA). Viability of cells after treatment with bacterial supernatants was assessed by trypan blue, 7-AAD and CellTiter-Blue® staining. (FIG. 9A-C)\nQuantification of CCL17 and cytokines in eukaryotic cell culture supernatants. CCL17 was quantified in cell culture supernatants of KM-H2 cells using ELISA reagent Quantikine CCL17/TARC, (R&D Systems, Minneapolis, USA) according to the manufacturer's instructions (ELISA reader MRXII, Thermo Fisher Scientifc, Waltham, USA).\nBioassays for screening for immune modulatory activity in probiotic supernatants. Two biological assays based on down-modulation of costimulatory molecules on human DCs, and of CCL17-secretion by a human Hodgkin lymphoma T cell line (KM-H2) were set up. […]\nSimilarly, 200 μL supernatants were added to 3-5×10^6 KM-H2 cells for 24 h. Supernatants were collected from KM-H2 by centrifugation and stored at −80° C. until quantification of CCL17. […]"}, "[3]": {"tested_on": "human LPS treated DCs", "assay": "Cytokine secretion of human DCs (multiplex assay)", "settings": "for IFN-g / IL-5 / IL-10 / IL-12: 200 μl supernatant or amino acid 10 μM, 14 h", "protocol": "as §1\n[…] For probiotic supernatants, blank CDM1 was used as medium control. […] IL-5, IFN-gamma, IL-12, and IL-10, were quantified by a multiplex assay (Milliplex Human Cytokine Immunoassay, Millipore GMbH Schalbach, Germany) as described by the manufacturer."}, "[4]": {"settings": "read-out: Percentage of CD40 expressing mature DCs"}, "[5]": {"settings": "read-out: Percentage of CD80 expressing mature DCs"}, "[6]": {"settings": "read-out: Percentage of CD83 expressing mature DCs"}, "[7]": {"settings": "read-out: Percentage of CD86 expressing mature DCs"}, "[8]": {"settings": "read-out: Percentage of HLA-DR expressing mature DCs"}}, "note": "Read-outs that look alike come from different tables or passages of the source."}
{"molecule": "N[C@H](Cc1c[nH]cn1)C(=O)O", "note": "[D-histidine]", "values": [{"measurement": "activity at 10 µM", "setting": "[1]; [4]", "result": "101 ± 3.2", "unit": "%"}, {"measurement": "activity at 10 µM", "setting": "[1]; [5]", "result": "102 ± 0.9", "unit": "%"}, {"measurement": "activity at 10 µM", "setting": "[1]; [6]", "result": "103.1 ± 0.3", "unit": "%"}, {"measurement": "activity at 10 µM", "setting": "[1]; [7]", "result": "102.5 ± 0.4", "unit": "%"}, {"measurement": "activity at 10 µM", "setting": "[1]; [8]", "result": "99.9 ± 0.9", "unit": "%"}]}
{"molecule": "C[C@H](O)[C@@H](N)C(=O)O", "note": "[D-threonine]", "values": [{"measurement": "activity at 10 µM", "setting": "[1]; [4]", "result": "101 ± 1.5", "unit": "%"}, {"measurement": "activity at 10 µM", "setting": "[1]; [5]", "result": "100.8 ± 0.4", "unit": "%"}, {"measurement": "activity at 10 µM", "setting": "[1]; [6]", "result": "102.6 ± 0.5", "unit": "%"}, {"measurement": "activity at 10 µM", "setting": "[1]; [7]", "result": "102.1 ± 0.7", "unit": "%"}, {"measurement": "activity at 10 µM", "setting": "[1]; [8]", "result": "97.1 ± 3.9", "unit": "%"}]}
{"molecule": "N[C@@H](Cc1c[nH]c2ccccc12)C(=O)O", "note": "[L-Trp, L-Tryptophan]", "values": [{"measurement": "immune activity of synthetic tryptophan isomers in the CCL17 bioassay", "setting": "[2]", "result": "inactive"}, {"measurement": "Ratio IL-5/IFN-g", "setting": "[3]; with LPS 0.1 μg/ml", "result": 0.030}, {"measurement": "Ratio IL-10/IL-12", "setting": "[3]; with LPS 0.1 μg/ml", "result": 0.002}, {"measurement": "IFN-g", "setting": "[3]; with LPS 0.1 μg/ml", "result": 2031.50, "unit": "pg/mL"}, {"measurement": "IL-5", "setting": "[3]; with LPS 0.1 μg/ml", "result": 61.40, "unit": "pg/mL"}, {"measurement": "IL-10", "setting": "[3]; with LPS 0.1 μg/ml", "result": 4.90, "unit": "pg/mL"}, {"measurement": "IL-12", "setting": "[3]; with LPS 0.1 μg/ml", "result": 1993.00, "unit": "pg/mL"}, {"measurement": "Ratio IL-5/IFN-g", "setting": "[3]; without LPS", "result": 0.267}, {"measurement": "Ratio IL-10/IL-12", "setting": "[3]; without LPS", "result": 0.065}, {"measurement": "IFN-g", "setting": "[3]; without LPS", "result": 45.00, "unit": "pg/mL"}, {"measurement": "IL-5", "setting": "[3]; without LPS", "result": 12.00, "unit": "pg/mL"}, {"measurement": "IL-10", "setting": "[3]; without LPS", "result": 5.70, "unit": "pg/mL"}, {"measurement": "IL-12", "setting": "[3]; without LPS", "result": 88.30, "unit": "pg/mL"}]}
{"molecule": "CC(C)C[C@@H](N)C(=O)O", "note": "[D-leucine]", "values": [{"measurement": "activity at 10 µM", "setting": "[1]; [4]", "result": "100 ± 1.7", "unit": "%"}, {"measurement": "activity at 10 µM", "setting": "[1]; [5]", "result": "100 ± 1.6", "unit": "%"}, {"measurement": "activity at 10 µM", "setting": "[1]; [6]", "result": "97.1 ± 2.4", "unit": "%"}, {"measurement": "activity at 10 µM", "setting": "[1]; [7]", "result": "102 ± 1.3", "unit": "%"}, {"measurement": "activity at 10 µM", "setting": "[1]; [8]", "result": "98 ± 10", "unit": "%"}]}
{"molecule": "C[C@@H](N)C(=O)O", "note": "[D-alanine]", "values": [{"measurement": "activity at 10 µM", "setting": "[1]; [4]", "result": "102 ± 3.4", "unit": "%"}, {"measurement": "activity at 10 µM", "setting": "[1]; [5]", "result": "98.3 ± 2.6", "unit": "%"}, {"measurement": "activity at 10 µM", "setting": "[1]; [6]", "result": "97.7 ± 2.3", "unit": "%"}, {"measurement": "activity at 10 µM", "setting": "[1]; [7]", "result": "99.2 ± 2.1", "unit": "%"}, {"measurement": "activity at 10 µM", "setting": "[1]; [8]", "result": "98.1 ± 1.1", "unit": "%"}]}
{"molecule": "CC(C)[C@@H](N)C(=O)O", "note": "[D-valine]", "values": [{"measurement": "activity at 10 µM", "setting": "[1]; [4]", "result": "101 ± 2.4", "unit": "%"}, {"measurement": "activity at 10 µM", "setting": "[1]; [5]", "result": "99.6 ± 2", "unit": "%"}, {"measurement": "activity at 10 µM", "setting": "[1]; [6]", "result": "102 ± 1.2", "unit": "%"}, {"measurement": "activity at 10 µM", "setting": "[1]; [7]", "result": "101.8 ± 0.9", "unit": "%"}, {"measurement": "activity at 10 µM", "setting": "[1]; [8]", "result": "100 ± 1", "unit": "%"}]}
